{"source": "EPA's ToxValDB 9.5 (doi:10.2903/j.efsa.2009.327r)", "key": {"Bibionidae": {"system": "Bibionidae", "details": "chronic/long-term, duration: 28 days"}, "Apis mellifera": {"system": "Apis mellifera", "details": "acute, mortality"}, "Pimephales promelas": {"system": "Pimephales promelas", "details": "chronic/long-term; duration: 35 days; growth"}, "Aphidius rhopalosiphi": {"system": "Aphidius rhopalosiphi", "details": "acute; duration: 7 days; mortality"}, "Oncorhynchus mykiss": {"system": "Oncorhynchus mykiss", "details": "acute; duration: 96 hours; mortality"}, "Daphnia magna": {"system": "Daphnia magna", "details": "chronic/long-term; duration: 21 days; reproduction"}, "Tagia sp.": {"system": "Tagia sp.", "details": "acute; duration: 14 days; mortality"}}, "data": [{"compound": "CCCN(CCC)c1c([N+](=O)[O-])cc(C(F)(F)F)cc1[N+](=O)[O-]", "note": "[Trifluralin]", "values": [{"measurement": "NOEC", "setting": "Bibionidae; development", "result": 0.25, "unit": "mg/L"}, {"measurement": "NOEC", "setting": "Bibionidae; mortality", "result": 810, "unit": "mg/kg"}, {"measurement": "LD50", "setting": "Apis mellifera; duration: 48 hours, dermal", "result": "> 100", "unit": "µg/piece"}, {"measurement": "LD50", "setting": "Apis mellifera; oral, unspecified", "result": "> 80", "unit": "µg/piece"}, {"measurement": "LC50", "setting": "Colinus virginianus; acute, oral, diet, mortality", "result": 574, "unit": "mg/kg-day"}, {"measurement": "LD50", "setting": "Colinus virginianus; acute, oral, mortality", "result": "> 2250", "unit": "mg/kg"}, {"measurement": "NOEC", "setting": "Colinus virginianus; reproduction developmental", "result": 103, "unit": "mg/kg-day"}, {"measurement": "LD50", "setting": "Rattus norvegicus; acute, oral, mortality", "result": "> 5000", "unit": "mg/kg"}, {"measurement": "LOAEL", "setting": "Rattus norvegicus; chronic, duration: 2 years, Fischer 344, histopathology: neoplastic", "result": 30, "unit": "mg/kg-day"}, {"measurement": "NOAEL", "setting": "Rattus norvegicus; reproduction developmental, reproduction", "result": 148, "unit": "mg/kg-day"}, {"measurement": "NOAEL", "setting": "Rattus norvegicus; subchronic, duration: 90 days, oral", "result": 2.6, "unit": "mg/kg-day"}, {"measurement": "NOEC", "setting": "Pimephales promelas", "result": 0.0003, "unit": "mg/L"}, {"measurement": "LEL", "setting": "Aphidius rhopalosiphi", "result": 1200, "unit": "g/ha"}, {"measurement": "LC50", "setting": "Oncorhynchus mykiss", "result": 0.088, "unit": "µg/mL"}, {"measurement": "NOEC", "setting": "Daphnia magna", "result": 0.0507, "unit": "mg/L"}, {"measurement": "LC50", "setting": "Tagia sp.", "result": "> 1000", "unit": "mg/kg"}]}]}
